Drawing on PubChem BioAssay AID858 (Vanderbilt High Throughput Screening Facility, 2007), this text covers outcome and EC50 for 95 molecules.

Each structure is given as a SMILES string. Calls of active or inactive are those of the source.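 How the source made its calls: active means at least two of three replicate dose series yielding a converging curve fit, whether well or thinly supported; inactive means the rest.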

The target of this assay is D(1A) dopamine receptor (Homo sapiens) (UniProt P21728). Put plainly: concentration-dependent D1 reporter signal change – cell-based, CRE-luciferase, HEK293, dopamine EC30, D1 allosteric modulator project, dose response (AID 858).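 Further: HEK 293 cells bearing human D1 receptor stimulated by dopamine at its EC30; luciferase light from a cAMP response element reporter gene.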
Chain of D(1A) dopamine receptor (Homo sapiens) (P21728 whole entry, looked up): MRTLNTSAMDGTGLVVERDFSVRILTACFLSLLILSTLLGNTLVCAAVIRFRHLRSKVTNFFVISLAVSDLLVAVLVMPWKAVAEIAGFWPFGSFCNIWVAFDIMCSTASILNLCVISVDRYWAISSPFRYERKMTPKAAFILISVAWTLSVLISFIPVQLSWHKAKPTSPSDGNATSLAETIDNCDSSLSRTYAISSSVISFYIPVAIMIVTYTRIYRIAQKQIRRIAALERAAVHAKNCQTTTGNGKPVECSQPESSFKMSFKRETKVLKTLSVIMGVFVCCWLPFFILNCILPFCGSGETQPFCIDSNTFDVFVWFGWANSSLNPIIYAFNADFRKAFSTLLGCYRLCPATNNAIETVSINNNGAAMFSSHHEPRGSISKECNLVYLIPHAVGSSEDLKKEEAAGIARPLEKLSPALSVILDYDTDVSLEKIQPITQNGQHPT
`CCOc1ccccc1C1NC(=O)NC(C)=C1C(=O)OC1CCCCC1` (stereo not given): the outcome was inactive.

Turning to `CCOC(=O)C1CCCN(C(=O)c2cc(Cl)ccc2Cl)C1` (stereo not given), the outcome was inactive.

Take `CCOC(=O)c1c(-c2cccs2)csc1NC(=O)CSc1ncn[nH]1`: the result was inactive.

Consider `CCOc1cc(C2CC(=O)NC(SCC)=C2C#N)ccc1O` (stereo not given), for which the result was inactive.

For `O=C(NCc1ccco1)c1cnn2c(C(F)(F)F)cc(-c3ccco3)nc12`, the result was inactive.

Regarding `CCOc1ncccc1C(=O)OCc1nnc(-c2ccccc2)o1`, the outcome was inactive.

`CCc1nnc(NC(=O)CSc2ncc(-c3ccccc3)n2CC)s1`: the outcome was inactive.

In the case of `CN1CCN(CC(O)COCc2ccc3c(c2)OCO3)CC1` (stereo not given), the outcome was inactive.

For `CCOC(=O)N1CCN(S(=O)(=O)c2ccc3c(c2)CCN3C(=O)C2CCC2)CC1`, the outcome was inactive.

As for `Cn1c(=O)c2c(nc(SCCCC#N)n2Cc2ccccc2F)n(C)c1=O`, the outcome was inactive.

Turning to `Cc1nc(-c2ccc(S(=O)(=O)N3CCCCCC3)cc2)cs1`, the result was inactive.

Regarding `C=CCn1c(SCc2nc3c(c(=O)[nH]c(=O)n3CCCC)n2CCC)nnc1-c1ccccc1`, the result was inactive.

In the case of `c1ccc2c(c1)nc(NCC1CCCO1)c1nnnn12` (stereo not given), the outcome was inactive.

For the molecule `CCn1c(=O)c2cc(S(=O)(=O)NC3CCCCC3)ccc2n(CC)c1=O`, the outcome was inactive.

In the case of `COc1ccc(-c2noc(-c3ccco3)n2)cc1OC`, the outcome was inactive.

Take `C=CCn1c(=S)[nH]c2nc3c(cc2c1=O)CCCC3`: the result was inactive.

For `COc1cccc(NC2=NCC(=O)N2Cc2cccs2)c1`, the outcome was inactive.

Consider `CC(C)Cn1c(=O)c(C(=O)Nc2cnccn2)c(O)c2ccccc21`, for which the outcome was inactive.

For the molecule `CCOC(=O)N1CCC(NC(=O)c2cccc3c2C(=O)N(Cc2cccnc2)C3)CC1`, the result was inactive.

As to `CCOC(=O)c1ccc(N2CN=C3SCC(=O)N3C2)cc1`, the result was inactive.

Regarding `Cc1cccc(Cc2c(C)nc3c(C(=O)NCc4ccco4)cnn3c2C)c1`, the outcome was inactive.

With `CC(C)Oc1ccccc1C1CC(=O)Nc2cc3c(cc21)OCCO3` (stereo not given), the outcome was inactive.

With `CCOCCOC(=O)C1=C(C)Nc2ccc(C)cc2S1`, the outcome was inactive.

As a reminder, the EC50 is the midpoint of the concentration-response curve. Regarding `COc1ccc(C(=O)Nc2nnc(Cc3cccs3)s2)cc1OC`, the EC50 was 313 nM.

Take `CC(C)Cn1c(=O)c2c(c3ccccc31)OC(C)C(=O)N2` (stereo not given): the result was inactive.

As for `N#CC1=C(N)Oc2n[nH]c(-c3cccs3)c2C1c1ccsc1` (stereo not given), the result was inactive.

Take `CCn1cc(C(=O)NCC2COc3ccccc3O2)c2cc(OC)c(OC)cc2c1=O` (stereo not given): the outcome was inactive.

`Cc1ccc(-n2cnnn2)c2cccnc12`: the result was inactive.

Turning to `Cc1cc(C)nc(SCC(=O)N2CCCCC2)n1`, the outcome was inactive.

As to `CC(C)OC(=O)CSc1nnc(-c2cnccn2)n1-c1ccccc1`, the result was inactive.

For the molecule `COC(=O)c1cc(=O)n(Cc2ccco2)c(=Nc2ccc(F)c(Cl)c2)s1`, the outcome was inactive.

Consider `COC(=O)c1ccc(COc2nc(C)cc(C)c2C#N)o1`, for which the outcome was inactive.

In the case of `CCOC(=O)c1c(C)oc2c1c(C=NCc1ccccn1)c(O)c1ccccc12`, the outcome was inactive.

With `CCc1nc2ccccc2c(C(=O)OCC(=O)NCc2ccco2)c1C`, the result was inactive.

For the molecule `CCc1ccc2[nH]c(=O)c(CN(Cc3nnnn3C3CCCC3)C3CCCCC3)cc2c1`, the result was inactive.

In the case of `Cc1sc2ncnc(SCC(=O)N3CCCC3)c2c1C`, the outcome was inactive.

As for `Cc1nc2sc3c(c2c(=O)[nH]1)CCC3`, the outcome was inactive.

For the molecule `CCC(=O)N1CCc2cc(S(=O)(=O)NCCC(=O)NC3CCCc4ccccc43)ccc21` (stereo not given), the result was inactive.

For `Cc1ccc(-n2c(SCC(=O)OC(C)C)nnc2-c2cnccn2)cc1`, the outcome was inactive.

Turning to `Cc1cc(Br)c2c(c1)=C(c1sc(N3CCCCCC3)nc1O)C(=O)N=2`, the EC50 was 1350 nM.

On to `CCC(=O)n1nc(-c2cccnc2)nc1NCc1ccc(OC)cc1`, for which the outcome was inactive.

`C=CCn1c(=O)c2c(C)c(C)sc2n2c(Nc3ccc(OC)cc3)nnc12`: the result was inactive.

For `CCCCn1c(=NC(=O)c2cccnc2)c(C(=O)OCC)cc2c(=O)n3ccccc3nc21`, the EC50 is 2020 nM.

`CCOC(=O)c1oc2ccc(Br)cc2c1NC(=O)CN1CCN(C)CC1`: the outcome was inactive.

`COc1ccc(CCNc2nnc(Sc3nnnn3-c3ccccc3)s2)cc1OC`: the outcome was inactive.

On to `Cc1cc(SCC(=O)N2CCC(c3noc4ccc(F)cc34)CC2)nc2ccccc12`, for which the result was inactive.

As to `CCC1(CC)C(=O)NC(=NCCc2c[nH]c3ccccc23)NC1=O`, the result was inactive.

Turning to `COC(=O)Nc1ccc2c(c1)N(C(=O)CCN1CCOCC1)c1ccccc1S2`, the result was inactive.

In the case of `COc1ccc(-c2noc(COc3ccc4ccccc4c3Br)n2)cc1OC`, the result was inactive.

Take `c1ccc(C2CC(c3ccccc3)n3ncnc3N2)cc1` (stereo not given): the result was inactive.

In the case of `O=c1n(Cc2ccccc2)c2cc(Cl)cnc2n1Cc1ccccc1`, the result was inactive.

Turning to `COC(=O)/C(=C1/Oc2cc3c(cc2S1)OCO3)C(F)(F)F`, the outcome was inactive.

Take `COc1ccc(S(=O)(=O)Nc2ccc3c(c2)OCO3)cc1OC`: the result was inactive.

In the case of `COc1ccc(Cc2nnc(NC(=O)c3c(-c4ccccc4)noc3C)s2)cc1`, the result was inactive.

For `COc1ccccc1NC(=O)N(Cc1ccc2c(c1)OCO2)Cc1nc2ccccc2c(=O)[nH]1`, the outcome was inactive.

On to `CSc1ccccc1NC(=O)c1onc(C)c1Cl`, for which the outcome was inactive.

For the molecule `NC(=O)c1cc(-c2ccccc2)nc(N2CCCCCC2)n1`, the result was inactive.

As to `O=S(=O)(Nc1cc(Cl)ccc1N1CCCCC1)c1cccs1`, the outcome was inactive.

Turning to `O=C1CC(c2ccsc2)c2cc3c(cc2N1)OCCO3` (stereo not given), the outcome was inactive.

Consider `COc1ccc(N2C(=O)C3CCCN3C2c2ccccc2)cc1Cl` (stereo not given), for which the outcome was inactive.

Take `CCCNc1nc2c(c(=O)[nH]c(=O)n2C)n1CCc1ccccc1`: the outcome was inactive.

With `CCCn1c(SCC(=O)Nc2sc(C)c(C)c2C(=O)OCC)nc2c1c(=O)n(C)c(=O)n2C`, the result was inactive.

Take `Cc1cc(C)n(-c2nc3ccccc3nc2Nc2ccc(CC(=O)O)cc2)n1`: the outcome was inactive.

For `COc1ccc(CCNS(=O)(=O)c2ccc3c(c2)OCCO3)cc1OC`, the outcome was inactive.

For `Cc1cc(N2CCN(S(=O)(=O)c3ccc4c(c3)OCCO4)CC2)n2ncnc2n1`, the result was inactive.

Consider `CC1(C)CN=C(Nc2nc3ccccc3s2)S1`, for which the outcome was inactive.

`COc1ccc(OC)c(/C=N/c2oc(-c3ccco3)c(-c3ccco3)c2C#N)c1`: the EC50 was 1970 nM.

Take `Cc1cccc(C2CC(c3ccc(F)cc3)Nc3nc(N)nn32)c1` (stereo not given): the outcome was inactive.

In the case of `Cc1cc(NCCCn2ccnc2)n2c(nc3ccccc32)c1C#N`, the result was inactive.

As for `Cc1nnc(SCCn2c(N3CCCC(C)C3)nc3c2c(=O)[nH]c(=O)n3C)s1` (stereo not given), the outcome was inactive.

In the case of `CCOC(=O)CN(C(=O)CSc1nnc(-c2ccc(OC)c(OC)c2)o1)c1ccc(F)cc1`, the outcome was inactive.

`O=C1N(CN2CCN(c3cccc(Cl)c3)CC2)c2ccccc2C12OCCCO2`: the outcome was inactive.

For `Fc1ccc(-c2cc(C(F)(F)F)nc(-n3cncn3)n2)cc1`, the result was inactive.

Turning to `CCSC(C)CC1C/C(=N/O)c2c(CC)noc2C1` (stereo not given), the result was inactive.

For `CCCc1nc(N2CCOCC2)c(C#N)c2c1CCCC2`, the result was inactive.

For the molecule `COc1cccc(N2C(=O)C3ON(c4ccccc4)C(c4cccs4)C3C2=O)c1` (stereo not given), the outcome was inactive.

Turning to `C=CCNc1sc(C(=O)C(C)(C)C)c(N)c1C#N`, the EC50 was 1140 nM.

For the molecule `COC(=O)c1ccc(C(=O)OC)c(NC(=O)COC(=O)C23CC4CC(CC(O)(C4)C2)C3)c1`, the outcome was inactive.

Turning to `C=CCSc1nc2ccccc2c(=O)[nH]1`, the outcome was inactive.

`Clc1ccccc1-c1nn2c(-c3ccncc3)nnc2s1`: the result was inactive.

`COc1ccc(S(=O)(=O)N2CCSC2c2ccc(OC)c(OC)c2)cc1` (stereo not given): the outcome was inactive.

As for `N#CC1=C(N)n2c(s/c(=C\c3ccco3)c2=O)=C(C#N)C1c1ccco1` (stereo not given), the result was inactive.

Take `CC(C)c1ccc(-c2nc(N3CCCCC3)[nH]c(=O)c2C#N)cc1`: the EC50 is 1750 nM.

Take `CCn1c(SCC(=O)Nc2cc(C)on2)nc2c(c1=O)SC(C)C2` (stereo not given): the outcome was inactive.

For the molecule `CC(=O)N1CCC2(CC1)C(C#N)=C(N)Oc1c2sc2nc(C)cc(C)c12`, the result was inactive.

Take `CC(=O)N=c1sc2nc3ccccc3nc2n1N(C(C)=O)C(C)=O`: the result was inactive.

For the molecule `COc1ccccc1CNC(=O)c1ccc(NS(=O)(=O)c2c(C)noc2C)cc1`, the result was inactive.

On to `COc1ccc(C2CC(c3cc(OC)ccc3OC)n3nnnc3N2)cc1` (stereo not given), for which the outcome was inactive.

Regarding `CC(C)Sc1nc2c(c(=O)n1C)SC(C)C2` (stereo not given), the outcome was inactive.

Consider `O=C(c1ccco1)N1CCN(S(=O)(=O)c2ccc3c(c2)CCN3C(=O)C2CC2)CC1`, for which the result was inactive.

On to `CCCCCn1c(SCC(=O)OC)nc2c1c(=O)[nH]c(=O)n2C`, for which the outcome was inactive.

In the case of `Nc1nonc1-n1nnc(C(=O)c2ccccc2)c1-c1ccccc1`, the outcome was inactive.

Turning to `Cc1cc(-n2nc(C)cc2C)nc(NS(=O)(=O)c2ccccc2)n1`, the result was inactive.

With `Cc1c(C)c2ccc(OC3CCCCC3=O)cc2oc1=O` (stereo not given), the outcome was inactive.

With `Cc1onc(-c2ccccc2)c1C(=O)Nc1ccc2c(c1)OCO2`, the outcome was inactive.
